The record followed here is patent US20240391954A1, “MC4R AGONIST PEPTIDES” (The Regents of the University of Michigan, priority 2021, published 2024).

Read-outs that look alike come from different tables or passages of the source. Positions of bridges follow the written chain, without caps; N, C: chain ends. Non-standard residues stand in square brackets, D forms with d. Residues, ends and D or L forms follow the SMILES beside them. dPhe(4-Br) = N[C@H](Cc1ccc(Br)cc1)C(=O)O; d(αMeF) = C[C@@](N)(Cc1ccccc1)C(=O)O; Cit = NC(=O)NCCC[C@H](N)C(=O)O; NMeA = CN[C@@H](C)C(=O)O; Nle = CCCC[C@H](N)C(=O)O; Orn = NCCC[C@H](N)C(=O)O; dAbu = CC[C@@H](N)C(=O)O; Aib = CC(C)(N)C(=O)O Some results are limits rather than exact numbers.

For one series, the target named is T1, human MC3R (Homo sapiens, UniProt P41968).
T1 construct: expressed in transfected cells; host or cells: HEK-293 cells stably expressing the GScAMP22F split-luciferase cAMP sensor (parent reporter line from Promega); MC3R clone generated in-house, G418 selection
T1 sequence (P41968 whole entry): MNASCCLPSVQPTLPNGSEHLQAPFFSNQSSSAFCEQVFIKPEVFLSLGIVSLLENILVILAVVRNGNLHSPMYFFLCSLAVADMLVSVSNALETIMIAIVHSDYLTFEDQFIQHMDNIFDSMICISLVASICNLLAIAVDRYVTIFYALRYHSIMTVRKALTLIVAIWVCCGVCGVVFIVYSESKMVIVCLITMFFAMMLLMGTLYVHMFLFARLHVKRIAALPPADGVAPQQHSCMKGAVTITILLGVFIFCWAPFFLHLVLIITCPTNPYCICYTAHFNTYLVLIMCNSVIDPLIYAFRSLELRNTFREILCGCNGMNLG
Description: split-luciferase cAMP sensor assay, agonist mode (measurement window 1), hMC3R. The class given is cell-based. The conditions noted are these: for Emax: read-out: MC3R cAMP % max activation; for EC50: HEK-293 cells stably expressing hMC3R, read-out: MC3R cAMP EC50; for MC4R selectivity vs MC3R: MC4R versus MC3R. Summed up:
(§1)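 Live stable cell lines carrying receptor plus GloSensor cAMP22f split-luciferase, loaded with 4% D-luciferin in serum-free medium (~1% serum estimated during assay). Luminescence recorded during in-line peptide addition; direct agonist effect read in window 1, with 20 μM forskolin as normalization reference. EC50 from four-parameter sigmoid fit.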

The nature of a further series: Mouse plasma stability. The class given is in vitro ADME. The conditions noted are these: pooled mouse plasma, 37° C. The protocol: FIG. 3. Results of plasma stability testing for control peptides. Compounds shown were incubated in mouse plasma at 37° C. at 1 μM concentrations. 40 ul aliquots were removed at the times indicated and the reactions stopped with the addition of 160 μL cold acetonitrile containing 200 ng/ml of peptide internal standard (IS). The incubation solution was centrifuged at 3500 rpm for 10 minutes to precipitate protein. LC/MS/MS analysis was used to determine the % peptide remaining.
Pooled mouse plasma was prepared and stored at −80° C, prior to use, 396 μL mouse plasma was incubated at 37° C. for 5 minutes in 1.5 mL microcentrifuge tubes. 4 μL of 100 μM test or control compound/peptide was added to each tube and incubated for 0.5, 15, 30, 60, 120, or 240 minutes. An aliquot of 40 μL of each reaction was stopped by the addition of 4 volume of cold acetonitrile containing 200 ng/mL of […] solution was centrifuged at 3500 rpm for 10 minutes to precipitate protein. The supernatant was used for LC/MS/MS analysis. The natural log peak area ratio (compound peak area/internal standard peak area) was plotted against time and the gradient of the line determined.

The target of the next series is T2, human MC4R (Homo sapiens, UniProt P32245).
T2 construct: host or cells: HEK-293 cells stably expressing the GScAMP22F split-luciferase cAMP sensor and hMC4R, G418 selection
T2 sequence (P32245 whole entry): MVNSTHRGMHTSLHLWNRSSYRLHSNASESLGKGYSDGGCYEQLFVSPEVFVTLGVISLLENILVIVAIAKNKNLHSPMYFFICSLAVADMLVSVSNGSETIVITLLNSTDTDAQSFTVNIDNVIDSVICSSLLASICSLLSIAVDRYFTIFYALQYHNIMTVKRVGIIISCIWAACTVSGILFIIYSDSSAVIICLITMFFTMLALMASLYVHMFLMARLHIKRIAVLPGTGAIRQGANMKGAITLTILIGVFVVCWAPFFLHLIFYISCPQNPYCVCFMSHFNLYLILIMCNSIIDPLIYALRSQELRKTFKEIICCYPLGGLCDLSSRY
The experiment in a line: split-luciferase cAMP sensor assay, agonist mode (measurement window 1), hMC4R. The class given is cell-based. The conditions noted are these: for Emax: read-out: MC4R cAMP % max activation; for EC50: read-out: MC4R cAMP EC50. Put shortly: as §1

Series [1] in a line: Plasma protein binding (Centrifree ultrafiltration). The class given is in vitro ADME. The protocol:
Solutions of test compound in DMSO were prepared at 1 mM, 100 uM and 10 uM, 5 ul of each solution of test compound was added to 495 uL plasma, and incubated at 25° C. for 5 min. Sample was added to a Centrifree® device, then centrifuged at 2000× g for 20 min to obtain desired filtrate volume. Initial plasma samples and ultrafiltrates were subjected to LC-MS/MS. % Free peptide=(concentration of ultrafiltrates/concentration of plasma)×100%. % Bound=100%−% Free

A further series has as its target T3, human MC1R (Homo sapiens, UniProt Q01726).
T3 construct: expressed in transfected cells; host or cells: HEK-293 cells stably expressing hMC1R and the GScAMP22F cAMP sensor
The experiment in a line: split-luciferase cAMP sensor assay, agonist mode, hMC1R. The class given is cell-based. The conditions noted are these: MC4R versus MC1R. Put shortly:
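HEK-293 cells stably expressing hMC1R and the GScAMP22F split-luciferase cAMP sensor, preloaded 120 min at 37° C with D-luciferin in serum-free medium. Peptide responses were taken as peak luminescence over 2-13 min minus 2-min baseline, normalized to the α-MSH ECmax. EC50 was obtained from a four-parameter variable-slope fit.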

[2] abbreviates: agonist mode, hMC3R stable cell line.
Where [3] appears, read: agonist mode, hMC4R stable cell line.
The mark [4] stands for this setting: % maximal activation, agonist mode.
Where [5] appears, read: HEK-293 cells stably expressing hMC4R, agonist mode.

T3 sequence (Q01726 whole entry): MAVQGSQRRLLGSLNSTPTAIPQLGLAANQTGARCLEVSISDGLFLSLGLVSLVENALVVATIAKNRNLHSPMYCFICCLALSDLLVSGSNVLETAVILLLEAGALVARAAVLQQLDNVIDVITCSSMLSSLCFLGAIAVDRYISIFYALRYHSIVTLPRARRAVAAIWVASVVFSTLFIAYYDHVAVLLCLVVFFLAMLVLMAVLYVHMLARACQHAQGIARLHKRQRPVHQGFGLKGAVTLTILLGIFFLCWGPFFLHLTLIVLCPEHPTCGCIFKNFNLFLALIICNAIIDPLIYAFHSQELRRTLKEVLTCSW

For `COc1ccc(C[C@H]2NC(=O)[C@H](CCCNC(=N)N)NC(=O)[C@@H](C)NC(=O)[C@@H](NC(=O)[C@H](CCCNC(=N)N)NC(C)=O)CSSC[C@@H](C(N)=O)NC(=O)[C@@H](Cc3c[nH]c4ccccc34)NC(=O)[C@H](CCCNC(=N)N)NC2=O)cc1` [CTX-1238, Arg-cyclo(Cys-D-Ala-Arg-D-Tyr(O-Me)-Arg-D-Trp-Cys)] (Ac-RC[dA]R[dY](Me)R[dW]C-NH2; disulfide 2-8 (inferred)), on human MC3R (setting [2]), the Emax is 21%. The same compound gave a half-life at 1 µM in “Mouse plasma stability” of 2.87 h. At human MC4R, the “MC4R selectivity vs MC1R” value came to 0.44 and the “MC4R selectivity vs MC3R” value was determined as 0.49. Further, on human MC4R (setting [3]), the Emax worked out at 79%. In series [1], this compound showed a fraction unbound at 5 min, 0.1 µM of 0.47; an unbound share (fraction unbound) at 5 min, 1 µM of 0.53; a fraction unbound at 5 min, 10 µM of 0.59.
Turning to `CC(=O)N[C@@H](CCCNC(=N)N)C(=O)N[C@H]1CSSC[C@@H](C(N)=O)NC(=O)[C@@H](Cc2c[nH]c3ccccc23)NC(=O)[C@H](CCCNC(=N)N)NC(=O)[C@@H](Cc2ccc(Br)cc2)NC(=O)[C@H](CCCNC(=N)N)NC(=O)C(C)(C)NC1=O` [CTX-1246, Arg-cyclo(Cys-Aib-Arg-D-Phe(4-Br)-Arg-D-Trp-Cys)] (Ac-RC[Aib]R[dPhe(4-Br)]R[dW]C-NH2; disulfide 2-8 (inferred)), the Emax on human MC3R (setting [2]) came to 21%. Also, the half-life at 1 µM in “Mouse plasma stability” is greater than 4 h. In addition, in series [1], the fraction unbound at 5 min, 0.1 µM was 0.27; the fraction unbound at 5 min, 1 µM was 0.56; the unbound share (fraction unbound) at 5 min, 10 µM is 0.57.
For `CC[C@H]1NC(=O)[C@@H](NC(=O)[C@H](CCCNC(=N)N)NC(C)=O)CSSC[C@@H](C(N)=O)NC(=O)[C@@H](Cc2c[nH]c3ccccc23)NC(=O)[C@H](CCCNC(=N)N)NC(=O)[C@@H](Cc2ccc(Br)cc2)NC(=O)[C@H](CCCNC(=N)N)NC1=O` [CTX-1247, Arg-cyclo(Cys-D-Abu-Arg-D-Phe(4-Br)-Arg-D-Trp-Cys)] (Ac-RC[dAbu]R[dPhe(4-Br)]R[dW]C-NH2; disulfide 2-8 (inferred)), at human MC3R (setting [2]), the Emax was 13%. Further, in “Mouse plasma stability”, the half-life at 1 µM came to 3.32 h. At human MC4R, the “MC4R selectivity vs MC1R” value was found to be 0.43 and the “MC4R selectivity vs MC3R” value was 2.05. On human MC4R (setting [3]), the Emax came out at 75% and the EC50 turned out to be 3.3 nM. In series [1], this compound had an unbound share (fraction unbound) at 5 min, 0.1 µM of 0.51; a free fraction (fraction unbound) at 5 min, 1 µM of 0.47; a fraction unbound at 5 min, 10 µM of 0.47.
`CC(=O)N[C@@H](CCCNC(=N)N)C(=O)N[C@H]1CSSC[C@@H](C(N)=O)NC(=O)[C@H](Cc2c[nH]c3ccccc23)NC(=O)[C@H](CCCNC(N)=O)NC(=O)[C@@H](Cc2ccccc2)NC(=O)[C@H](CCCNC(=N)N)NC(=O)C(C)(C)NC1=O` [CTX-1270, Arg-cyclo(Cys-Aib-Arg-D-Phe-Cit-Trp-Cys)] (Ac-RC[Aib]R[dF][Cit]WC-NH2; disulfide 2-8): the Emax at human MC3R (setting [4]) worked out at 14%; on human MC4R (setting [4]), 98%. Besides, the EC50 on human MC3R (agonist mode) came to 52 nM. For the same compound, on human MC3R, the “MC4R selectivity vs MC3R” value is on record as 1.88. Also, at human MC1R, the “MC4R selectivity vs MC1R” value came to 2.49.
For the compound `CC1(C)NC(=O)CSC[C@@H](C(N)=O)NC(=O)[C@H](Cc2c[nH]c3ccccc23)NC(=O)[C@H](CCCNC(=N)N)NC(=O)[C@@H](Cc2ccccc2)NC(=O)[C@H](CCCNC(N)=O)NC1=O` [CTX-1649, Thioether-cyclo(Aib-Cit-D-Phe-Arg-Trp-Cys)] ({CH2CO}-[Aib][Cit][dF]RWC-NH2; thioether N-6), the Emax on human MC3R (setting [4]) worked out at 79%; at human MC4R (setting [4]), 97%. Moreover, the “MC4R selectivity vs MC3R” value at human MC3R is 72. Moreover, the “MC4R selectivity vs MC1R” value at human MC1R came to 1652.
`CC(=O)N[C@@H](CCCNC(=N)N)C(=O)N[C@H]1CSSC[C@@H](C(N)=O)NC(=O)[C@H](Cc2c[nH]c3ccccc23)NC(=O)[C@H](CCCNC(=N)N)NC(=O)[C@@](C)(Cc2ccccc2)NC(=O)[C@H](CCCNC(=N)N)NC(=O)[C@@H](C)NC1=O` [CTX-1278] (Ac-RC[dA]R[d(αMeF)]RWC-NH2; disulfide 2-8 (inferred)): the values for the Emax at human MC3R (setting [4]) and on human MC4R (setting [4]) were 86% and 105%, respectively. Besides, the “MC4R selectivity vs MC3R” value at human MC3R is recorded as 12. Moreover, at human MC1R, the “MC4R selectivity vs MC1R” value amounted to 1.13.
For `CC(=O)N[C@@H](CCCNC(=N)N)C(=O)N[C@H]1CSSC[C@@H](C(N)=O)NC(=O)[C@@H](Cc2ccccc2)NC(=O)[C@H](CCCNC(=N)N)NC(=O)[C@@H](Cc2ccccc2)NC(=O)[C@H](CCCNC(=N)N)NC(=O)[C@@H](C)NC1=O` [CTX-1265, Arg-cyclo(Cys-D-Ala-Arg-D-Phe-Arg-D-Phe-Cys)] (Ac-RC[dA]R[dF]R[dF]C-NH2; disulfide 2-8 (inferred)), the “MC3R cAMP % max activation” value at human MC3R (setting [4]) is given as “(60%)”. The “MC4R selectivity vs MC3R” value on human MC3R stood at 0.04. For the same compound, the “MC4R selectivity vs MC1R” value on human MC1R amounted to 0.02. In addition, the “MC4R cAMP % max activation” value at human MC4R (setting [4]) was “(71%)”.
As for `CC(=O)N[C@@H](CCCNC(=N)N)C(=O)N[C@H]1CSSC[C@@H](C(N)=O)NC(=O)[C@@H](Cc2c[nH]c3ccccc23)NC(=O)[C@H](CCCNC(=N)N)NC(=O)[C@@H](Cc2ccccc2)NC(=O)[C@H](CCCNC(=N)N)NC(=O)[C@H](C)N(C)C1=O` [CTX-1269, Arg-cyclo(Cys-NMe-Ala-Arg-D-Phe-Arg-D-Trp-Cys)] (Ac-RC[NMeA]R[dF]R[dW]C-NH2; disulfide 2-8 (inferred)), the Emax was 39% on human MC3R (setting [4]) and 92% at human MC4R (setting [4]). The “MC4R selectivity vs MC3R” value on human MC3R stood at 9.31. Moreover, the “MC4R selectivity vs MC1R” value at human MC1R was determined as 2.56. For the same compound, the EC50 at human MC4R (setting [5]) is 13 nM.
Take `CC[C@H]1NC(=O)[C@@H](NC(=O)[C@H](CCCNC(=N)N)NC(C)=O)CSSC[C@@H](C(N)=O)NC(=O)[C@H](Cc2c[nH]c3ccccc23)NC(=O)[C@H](CCCNC(=N)N)NC(=O)[C@@H](Cc2ccccc2)NC(=O)[C@H](Cc2c[nH]cn2)NC1=O` [CTX-1295, Arg-cyclo(Cys-D-Abu-His-D-Phe-Arg-Trp-Cys)]: the Emax on human MC3R (setting [4]) amounted to 97%; on human MC4R (setting [4]) it was 102%. Further, the EC50 on human MC3R (agonist mode) worked out at 1.6 nM; at human MC4R (setting [5]) it was 0.25 nM. In addition, the “MC4R selectivity vs MC3R” value on human MC3R worked out at 6.31. The “MC4R selectivity vs MC1R” value on human MC1R was 2.79.
Turning to `CC(=O)N[C@@H](CCCNC(=N)N)C(=O)N[C@H]1CSSC[C@@H](C(N)=O)NC(=O)[C@H](Cc2ccccc2)NC(=O)[C@H](CCCNC(=N)N)NC(=O)[C@@H](Cc2ccccc2)NC(=O)[C@H](CCCN)NC(=O)C(C)(C)NC1=O` [CTX-1602, Arg-cyclo(Cys-Aib-Orn-D-Phe-Arg-Phe-Cys)] (Ac-RC[Aib][Orn][dF]RFC-NH2; disulfide 2-8), the Emax was determined as 80% on human MC3R (setting [4]) and 97% at human MC4R (setting [4]). The “MC4R selectivity vs MC3R” value at human MC3R turned out to be 3.44. Besides, the “MC4R selectivity vs MC1R” value on human MC1R was found to be 3.65.
`CCCC[C@H](NC(=O)[C@H](CCCNC(=N)N)NC(C)=O)C(=O)N[C@H]1CSSC[C@@H](C(N)=O)NC(=O)[C@@H](Cc2c[nH]c3ccccc23)NC(=O)[C@H](CCCNC(=N)N)NC(=O)[C@@H](Cc2ccccc2)NC(=O)[C@H](CCCNC(=N)N)NC1=O` [CTX-1616, Arg-Nle-cyclo(Cys-Arg-D-Phe-Arg-D-Trp-Cys)] (Ac-R[Nle]CR[dF]R[dW]C-NH2; disulfide 3-8): the Emax on human MC3R (setting [4]) amounted to 78%; at human MC4R (setting [4]) it was 93%. Also, the “MC4R selectivity vs MC3R” value on human MC3R came to 3.78. Also, on human MC1R, the “MC4R selectivity vs MC1R” value was 1.51. Further, the EC50 on human MC4R (setting [5]) was found to be 16 nM.
